In patent EP4768487A1, “FUSED LACTAM RING COMPOUND AND USE THEREOF” (Chengdu Zenitar Biomedical Technology Co., Ltd., priority 2023, dated 2025):
Like-named read-outs stand apart in the source and are kept apart here.

Assays:
[1] = biological target: T1, PARP1 (Homo sapiens, UniProt P09874); assay: PARP1 enzyme assay (histone-coated plate, chemiluminescence); format: biochemical; conditions: PARP1 0.02 nM, DNA 0.8 nM, NAD+ 3.5 µM; read-out: PARP-1 IC50
T1 construct: purchased BPS 80501

[2] = tested on: BRCA-mutated MDA-MB-436 cells; assay: Anti-proliferative activity against cells (CCK8): MDA-MB-436; format: cell-based; conditions: Homo sapiens, 72 h + 96 h culture
[3] = tested on: BRCA wild-type DLD-1 cells; assay: Anti-proliferative activity against cells (CCK8): DLD-1; format: cell-based; conditions: Homo sapiens, 72 h + 96 h culture
How it was run: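 DLD-1 cells (1000/well) in RPMI-1640 with 10% FBS, treated 24 h after plating with PARPi at 0, 1 or 10 µM final. Cultured 72 h, medium exchanged with re-added PARPi, then a further 96 h; read-out by CCK8.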

[4] = tested on: CD34+ hematopoietic stem and progenitor cells (hmPB34-P-SC); assay: Hematological toxicity assay (CellTiter-Glo 2.0); format: cell-based; conditions: 120 h; 5 days of culture
Protocol: The next day, the cells were resuspended and seeded in a 96-well plate at a concentration of 1000 cells/well, and meanwhile, different concentrations of the drug were added for treatment, with 3 replicate wells set for each concentration. After 5 days of culture, the number of viable cells in each well was determined using a CellTiter-Glo 2.0 kit, followed by detection by a microplate reader.

[5] = biological target: T2, hERG potassium ion channel (Homo sapiens, UniProt Q12809); assay: Inhibition of hERG potassium ion channel (Qpatch, CHO cells stably expressing hERG); format: cell-based; conditions: for inhibitory effects on the hERG potassium ion channel (in words): conclusion of Table 17; for inhibition at 2.5 min, 20 µM: human, CHO cells stably expressing hERG, read-out: Inhibition rate at 20 µM
T2 construct: expressed in transfected cells; host or cells: CHO cells
T2 sequence (Q12809 whole entry): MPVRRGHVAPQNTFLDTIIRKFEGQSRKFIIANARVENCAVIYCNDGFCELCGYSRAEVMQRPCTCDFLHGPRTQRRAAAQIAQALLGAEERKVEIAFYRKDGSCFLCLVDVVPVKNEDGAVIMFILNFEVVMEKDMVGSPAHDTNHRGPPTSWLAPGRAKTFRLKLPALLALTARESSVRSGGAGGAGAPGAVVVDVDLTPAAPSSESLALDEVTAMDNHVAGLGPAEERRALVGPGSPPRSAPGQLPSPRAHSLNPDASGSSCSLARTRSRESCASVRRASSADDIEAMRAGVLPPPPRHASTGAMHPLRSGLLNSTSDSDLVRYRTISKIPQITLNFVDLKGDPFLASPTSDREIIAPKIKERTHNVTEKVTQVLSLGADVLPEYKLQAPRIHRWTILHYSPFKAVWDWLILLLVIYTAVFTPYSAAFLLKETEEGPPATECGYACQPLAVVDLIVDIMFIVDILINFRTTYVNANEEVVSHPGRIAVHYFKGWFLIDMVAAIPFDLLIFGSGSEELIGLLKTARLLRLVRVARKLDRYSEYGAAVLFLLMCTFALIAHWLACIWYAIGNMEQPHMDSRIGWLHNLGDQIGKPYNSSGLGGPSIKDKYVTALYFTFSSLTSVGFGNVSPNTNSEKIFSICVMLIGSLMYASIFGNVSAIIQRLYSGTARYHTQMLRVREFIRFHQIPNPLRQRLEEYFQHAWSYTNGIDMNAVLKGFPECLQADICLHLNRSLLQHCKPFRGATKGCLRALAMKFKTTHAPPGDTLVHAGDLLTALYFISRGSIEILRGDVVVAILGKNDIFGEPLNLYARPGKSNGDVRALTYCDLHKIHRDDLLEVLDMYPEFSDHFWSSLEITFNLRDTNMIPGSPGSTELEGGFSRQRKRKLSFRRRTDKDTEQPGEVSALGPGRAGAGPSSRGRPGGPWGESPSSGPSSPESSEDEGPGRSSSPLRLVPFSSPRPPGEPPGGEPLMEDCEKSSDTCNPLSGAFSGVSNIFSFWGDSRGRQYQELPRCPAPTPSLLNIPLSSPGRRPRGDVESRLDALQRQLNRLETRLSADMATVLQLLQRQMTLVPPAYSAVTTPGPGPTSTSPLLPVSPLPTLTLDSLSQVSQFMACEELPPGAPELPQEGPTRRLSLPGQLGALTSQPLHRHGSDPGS
Protocol: Cell culture and treatment: CHO cells stably expressing hERG were cultured in a cell culture flask and incubated in an incubator with 5% CO2 at 37 °C. When the cell density reached 60%-80%, the cell culture medium was removed by pipetting. The cells were washed once with PBS, and then Detachin was added for detachment. After complete detachment, a culture medium was added for neutralization. The cells were then centrifuged, and the supernatant was removed by pipetting. A culture medium was further added for resuspension, and the cell density was adjusted to (2-5) × 10^6 cells/mL for later use.
Compound preparation: The compound stock solution was diluted with 100% DMSO. Specifically, 10 µL of the compound stock solution was added to 20 µL of DMSO, followed by a 3-fold serial dilution to obtain 6 concentrations. 4 µL of each of the 6 compound solutions at different concentrations was taken and added to 396 µL of an extracellular fluid, resulting in a 100-fold dilution to obtain 6 intermediate concentrations. Then, 80 µL of each of the 6 intermediate-concentration compound solutions was taken and added to 320 µL of an extracellular fluid, resulting in a 5-fold dilution to achieve the final test concentrations. The highest test concentration was 40 µM. […] DMSO at this concentration has no effect on the hERG potassium channel. During the compound preparation, the entire dilution process was completed by a Bravo instrument.
Electrophysiological recording process: The single-cell high-impedance sealing and whole-cell mode formation processes were all completed automatically by a Qpatch instrument. After achieving the whole-cell recording mode, the cells were clamped at -80 mV. Before a 5-second +40 mV depolarizing stimulus was applied, a 50-millisecond -50 mV prepulse voltage was first applied. The potential was then repolarized to -50 mV and held for 5 s, and finally returned to -80 mV. This voltage stimulation was applied every 15 s. After 2 min of recording, the extracellular fluid was administered, followed by recording for 5 min. Then, the compound administration process began, starting from the lowest test compound concentration. Each test concentration was applied for 2.5 min. After all the concentrations were applied consecutively, the positive control compound, 3 µM Cisapride, was administered. At least 3 cells (n ≥ 3) were tested for each concentration.
Data processing: Data analysis and processing were performed using GraphPad Prism 5.0 and Excel software. The IC50 of the compound was calculated using GraphPad Prism 5 software by equation fitting as follows: Y = Bottom + (Top−Bottom)/(1+10^(∧)((LogIC50−X)*HillSLope)) [formula] where X is the Log value of the test concentration of the test sample, Y is the inhibition percentage at the corresponding concentration, and Bottom and Top are the minimum and maximum inhibition percentages, respectively. Table 17. Results of inhibition of hERG potassium ion channel by compounds

[6] = tested on: MDA-MB-436 breast cancer subcutaneous xenograft tumor model; assay: In vivo pharmacodynamic study of compound 2 in MDA-MB-436 subcutaneous xenograft tumor model; conditions: 100 mg/kg, oral once daily, 30 days
Protocol: Experimental process: Twenty-four female NOD/SCID mice were used in the experiment. […] All groups were subjected to oral administration once daily. Meanwhile, the mice were weighed every 2 days, and the length and width of the tumors were measured with a vernier caliper. After 30 days of administration, the tumor-bearing mice were anesthetized and sacrificed. The tumor tissues were dissected, weighed, and photographed, and the tumor growth inhibition rates were calculated.

[7] = Pharmacokinetic evaluation in Balb/c mice; format: in vivo; conditions: 1mg/kg, PO
Protocol: Experimental objective: To understand the pharmacokinetic profiles of the compounds. Experimental basis: Technical guidelines for non-clinical pharmacokinetic studies of chemical drugs, 2014.
Experimental scheme: The pharmacokinetic profiles of the compounds were investigated by intravenous administration (1 mg·kg^-1) and intragastric administration (1 mg·kg^-1) in Balb/c mice.
Sample preparation: About 0.2 mg of the compound was weighed out and dissolved in 10 µL of DMSO, and then a sodium chloride solution for injection was added to prepare a 0.1 mg·mL^-1 compound solution for later administration.
Three of the mice were subjected to intravenous administration (IV) at 1 mg·kg^-1, while the other three were subjected to intragastric administration (PO) at 1 mg·kg^-1. About 0.05 mL of blood was collected at 5 min, 15 min, 30 min, 1 h, 2 h, 4 h, 6 h, 8 h, 10 h, 24 h, and 48 h after administration. The collected blood was centrifuged at 3500 rpm for 15 min. The supernatant plasma was then collected and cryopreserved at -40 °C for later analysis. The plasma concentration was quantitatively analyzed using the LC-MS/MS method, and pharmacokinetic parameters such as […] (Cmax), area under plasma concentration-time curve (AUC(0-t)), half-life (T1/2), clearance rate (CL), tissue distribution (Vdss), and bioavailability (F) were calculated. Table 18. Results of pharmacokinetic test of compounds in Balb/c mice

[8] = Cerebrospinal fluid and plasma distribution in vivo; conditions: rat, male rats, intravenous 5 mg/kg, n = 1
Protocol: Experimental procedures: The compound was weighed out, a small amount of DMSO was added, and then a sodium chloride solution for injection was added to prepare a 5 mg·mL^-1 compound solution for later administration. […] 10 µL of the plasma and 10 µL of the cerebrospinal fluid were each added to a centrifuge tube, and 40 µL of acetonitrile containing 20 ng·mL^-1 internal standard SAHA was added for precipitation. […] The supernatant was collected and transferred to a sample vial for later analysis. Range of standard curve: 1-1000 ng·mL^-1.

[9] = cerebrospinal fluid, read-out: Cerebrospinal fluid

T1 sequence (P09874 whole entry): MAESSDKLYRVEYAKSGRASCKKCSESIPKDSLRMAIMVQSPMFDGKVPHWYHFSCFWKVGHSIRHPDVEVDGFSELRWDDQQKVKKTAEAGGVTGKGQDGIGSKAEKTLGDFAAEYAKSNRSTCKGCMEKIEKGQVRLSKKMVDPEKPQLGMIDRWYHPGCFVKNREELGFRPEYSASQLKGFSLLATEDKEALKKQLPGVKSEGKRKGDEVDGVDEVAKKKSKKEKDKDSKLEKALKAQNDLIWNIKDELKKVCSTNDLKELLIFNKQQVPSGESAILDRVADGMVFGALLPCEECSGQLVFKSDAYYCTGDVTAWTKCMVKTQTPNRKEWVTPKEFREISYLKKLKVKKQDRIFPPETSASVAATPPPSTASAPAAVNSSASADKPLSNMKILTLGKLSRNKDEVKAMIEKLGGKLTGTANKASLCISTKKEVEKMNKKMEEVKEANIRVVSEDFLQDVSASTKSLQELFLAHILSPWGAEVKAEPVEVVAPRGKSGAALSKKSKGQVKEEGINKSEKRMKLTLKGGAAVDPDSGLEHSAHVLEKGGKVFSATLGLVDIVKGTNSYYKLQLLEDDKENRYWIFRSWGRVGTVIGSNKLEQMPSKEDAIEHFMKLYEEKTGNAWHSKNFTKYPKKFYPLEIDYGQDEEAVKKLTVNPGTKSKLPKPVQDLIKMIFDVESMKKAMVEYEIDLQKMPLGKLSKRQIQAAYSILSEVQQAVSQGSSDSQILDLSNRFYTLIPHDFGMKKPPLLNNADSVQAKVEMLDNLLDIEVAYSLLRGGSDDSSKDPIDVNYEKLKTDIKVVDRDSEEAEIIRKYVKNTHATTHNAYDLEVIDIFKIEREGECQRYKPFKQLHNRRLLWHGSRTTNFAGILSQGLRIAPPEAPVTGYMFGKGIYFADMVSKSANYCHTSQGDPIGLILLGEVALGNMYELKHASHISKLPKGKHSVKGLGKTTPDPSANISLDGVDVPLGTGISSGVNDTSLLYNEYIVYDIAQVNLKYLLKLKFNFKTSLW

Row | Compound | IC50 [1] | IC50 [2] | IC50 [3] | IC50 [4] | further results
1 | Cc1nc2c([nH]c1=O)C[C@@H](CN1CCN(c3ccc(C(=O)NC4CC4)nc3F)CC1)CC2 [Example 81, (S)-N-Cyclopropyl-6-fluoro-5-(4-((2-methyl-3-oxo-3,4,5,6,7,8-hexahydroquinoxalin-6-yl)methyl)piperazin-1-yl)picolinamide] | ≤ 50 nM | 4.1 nM | > 1000 nM | > 1000 nM | 
2 | Cc1cc2c([nH]c1=O)CC(CN1CCN(c3ccc(C(=O)Nc4cnn(C)c4)nc3F)CC1)OC2 (stereo not shown) [Example 77, 6-Fluoro-N-(1-methyl-1H-pyrazol-4-yl)-5-(4-((3-methyl-2-oxo-1,5,7,8-tetrahydro-2H-pyrano[4,3-b]pyridin-7-yl)methyl)piperazin-1-yl)picolinamide] | ≤ 50 nM | 3.9 nM | > 1000 nM | 307 nM | 
3 | [2H]C([2H])([C@H]1CCc2nc(C)c(=O)[nH]c2C1)N1CCN(c2ccc(C(=O)NC)nc2Cl)CC1 [Example 85, (S)-6-Chloro-N-methyl-5-(4-((2-methyl-3-oxo-3,4,5,6,7,8-hexahydroquinoxalin-6-yl)methyl-d2)piperazin-1-yl)picolinamide] | ≤ 50 nM | 7 nM | > 1000 nM | > 1000 nM | 
4 | C=Cc1cc2c([nH]c1=O)CC(CN1CCN(c3ccc(C(=O)NC)nc3F)CC1)OC2 (stereo not shown) [Example 67, 6-Fluoro-N-methyl-5-(4-((2-oxo-3-vinyl-1,5,7,8-tetrahydro-2H-pyrano[4,3-b]pyridin-7-yl)methyl)piperazin-1-yl)picolinamide] | ≤ 50 nM |  | > 1000 nM | > 1000 nM | inhibitory effects on the hERG potassium ion channel (in words) [5]: Conclusion: Compounds 2, 6, 45, 62, 67, 74, 83, 87, etc., of the present disclosure exhibited relatively weak inhibitory effects on the hERG potassium ion channel.; inhibition at 2.5 min, 20 µM [5]: 4.18%
5 | O=C(c1cc(Cc2n[nH]c(=O)c3ccccc23)ccc1F)N1CCN(C(=O)C2CC2)CC1 [Olaparib, reference compound] |  |  |  | 200 nM | tumor growth inhibition rate [6]: 65.81%
6 | CNC(=O)c1ccc(C2=CCN(CC3Cc4[nH]c(=O)c(C5CC5)cc4CO3)CC2)c(F)n1 (stereo not shown) [Example 51, 1'-((3-Cyclopropyl-2-oxo-1,5,7,8-tetrahydro-2H-pyrano[4,3-b]pyridin-7-yl)methyl)-2-fluoro-N-methyl-1',2',3',6'-tetrahydro-[3,4'-bipyridine]-6-carboxamide] | 50 to 500 nM | 160 nM | > 1000 nM | > 1000 nM | CL [7]: 0.17 mL/min/kg; Vdss [7]: 0.04 L/kg; AUC(0-t) ([7]; male, mouse, plasma): 96800 ng·h/mL; Cmax ([7]; male, mouse, plasma): 6280 ng/mL; half-life ([7]; male, mouse, plasma): 15.9 h; concentration at 0.25 h [8, 9]: 53 ng/g; concentration at 2 h [8, 9]: 25 ng/g; concentration at 0.25 h ([8]; plasma, read-out: Plasma): 41900 ng/mL; concentration at 2 h ([8]; plasma, read-out: Plasma): 21700 ng/mL
7 | CNC(=O)c1ccc(N2CCN(C[C@H]3CCc4nc(C)c(=O)[nH]c4C3)CC2)c(Cl)n1 [Example 106, (S)-6-Chloro-N-methyl-5-(4-((2-methyl-3-oxo-3,4,5,6,7,8-hexahydroquinoxalin-6-yl)methyl)piperazin-1-yl)picolinamide] | ≤ 50 nM | 6.5 nM | > 1000 nM | > 1000 nM | 
8 | [2H]C([2H])([C@H]1CCc2nc(C)c(=O)[nH]c2C1)N1CCN(c2ccc(C(=O)NC)nc2F)CC1 [Example 83, (S)-6-Fluoro-N-methyl-5-(4-((2-methyl-3-oxo-3,4,5,6,7,8-hexahydroquinoxalin-6-yl)methyl-d 2)piperazin-1-yl)picolinamide] |  |  | > 1000 nM |  | inhibitory effects on the hERG potassium ion channel (in words) [5]: Conclusion: Compounds 2, 6, 45, 62, 67, 74, 83, 87, etc., of the present disclosure exhibited relatively weak inhibitory effects on the hERG potassium ion channel.; inhibition at 2.5 min, 20 µM [5]: 0.92%; concentration at 0.25 h [8, 9]: 86 ng/g; concentration at 2 h [8, 9]: 0 ng/g; concentration at 0.25 h ([8]; plasma, read-out: Plasma): 1500 ng/mL; concentration at 2 h ([8]; plasma, read-out: Plasma): 28 ng/mL
